The values that follow come from patent US11452725B2, “Chiral diaryl macrocycles and uses thereof” (TURNING POINT THERAPEUTICS, INC., priority 2015, dated 2022).

The subject of one test is Ba/F3 + IL3 parental. Briefly: Cell proliferation assay (CellTiter-Glo). The format is cell-based. The following applies: Mus musculus, BaF3; parental cells with IL3. (ATP-based viability assays read luminescence as a measure of living cells.)
In a further test the test system is AKT. As to the kind of experiment: Immunoblotting downstream signaling, KM12 cells. Format: cell-based. The following applies: Homo sapiens; KM12 cell line; read-out: downstream AKT phosphorylation IC50. The protocol: (§1) NSCLC cell line H2228 (harboring endogenous EML4-ALK fusion gene), HCC78 cells (harboring endogenous SLC34A2-ROS1 fusion gene), Karpas-299 cells (harboring endogenous NPM-ALK fusion gene) or SET-2 (harboring endogenous JAK2V617F activating mutation) were cultured in RPMI medium, and KM12 (harboring endogenous TPM3-TRKA fusion gene) cell line was cultured in DMEM medium, both supplemented with 10% fetal bovine serum and 100 U/mL of penicillin/streptomycin. Ba/F3 and NIH3T3 cells stably expressing ALK or ROS1 (WT or mutant) were culture as mentioned above. […] Protein lysates (approximately 20 μg) was resolved on 4-12% Bolt Bis-Tris precasted gels with MES running buffer (Life Technologies), transferred to nitrocellulose membranes using Trans-Blot Turbo Transfer System (Bio-Rad) and detected with antibodies targeting phosphorylated ALK Y1604 (Cell Signaling Technology), total ALK (Cell Signaling Technology), phosphorylated ROS1 and total ROS1 (Cell Signaling Technology), phosphorylated TRK A/B (Cell Signaling Technology), total TRKA antibody (Santa Cruz Biotechnology), phosphorylated STAT3 and STAT5, total STAT3 and STAT5 (Cell Signaling Technology), phosphorylated AKT (Cell Signaling Technology), total AKT (Cell Signaling Technology), phosphorylated ERK (Cell Signaling Technology), total ERK (Cell Signaling Technology) and Tubulin (Sigma). […]
On the technique in general: Immunoblotting shows a protein as a band on a membrane.

A further test has as its system ERK. Briefly: Immunoblotting downstream signaling, KM12 cells. Format: cell-based. The following applies: Homo sapiens; KM12 cell line; read-out: downstream ERK phosphorylation IC50. The protocol: as §1
Another test addresses T1, JAK1 (Homo sapiens, UniProt P23458).
T1 construct: purchased Reaction Biology Corporation (contract assay)
Briefly: Biochemical kinase assay (Reaction Biology). The conditions noted are these: 10 μM ATP.

In another test the target is T2, LTK (Homo sapiens, UniProt P29376).
T2 construct: purchased Reaction Biology Corporation (contract assay)
As to the kind of experiment: Biochemical kinase assay (Reaction Biology). The following applies: 10 μM ATP.

The target in another test is NPM-ALK (Homo sapiens, UniProt Q9UM73). Briefly: In vivo pharmacodynamics: ALK phosphorylation in Karpas 299 tumors (immunoblotting). Further details: species or system mice. The protocol:
Mice bearing xenograft tumors were humanely euthanized and tumors were resected and snap frozen in liquid nitrogen and stored at −80° C. Frozen tumor samples were processed at 4° C. in 1× Cell Lysis Buffer (Cell Signaling Technologies) to extract proteins. SDS loading samples were prepared by adding one volume of 4×LDS Sample Buffer (Life Technologies, Inc) to three volumes of protein lysate. Tumor SDS protein samples were processed by SDS-PAGE and immunoblotted with rabbit anti-phosphorylated ALK and mouse anti-actin antibodies (Cell Signaling Technologies). The signals from immunoblot were detected by C-DiGit Blot Scanner from LI-COR and the signal intensity were quantified using the Image Studio Digit software (LI-COR).
The level of ALK phosphorylation was determined by immunoblotting combined with signal quantification by the Image Studio Digit Software. […] At the dose of 15 mg/kg, ALK phosphorylation was reduced to <10% of the control level at 3 hours post oral administration and was maintained at about 21% of the control level at 12 hours post dosing.

Test [1] relates to Ba/F3 EML4-ALK wild type cell line. As to the kind of experiment: Cell proliferation assay (CellTiter-Glo). Format: cell-based. The following applies: Mus musculus, 72 hours.
For a further test, the target named is T3, PYK2 (Homo sapiens, UniProt Q14289).
T3 construct: purchased Reaction Biology Corporation (contract assay)
Briefly: Biochemical kinase assay (Reaction Biology). The following applies: 10 μM ATP.

The next test concerns the target T4, BTK (Homo sapiens, UniProt Q06187).
T4 construct: purchased Reaction Biology Corporation (contract assay)
Briefly: Biochemical kinase assay (Reaction Biology). The conditions noted are these: 10 μM ATP.

Another test addresses T5, FGR (Homo sapiens, UniProt P09769).
T5 construct: purchased Reaction Biology Corporation
As to the kind of experiment: Biochemical kinase assay (Reaction Biology). The following applies: 10 μM ATP.

For the next test, the target named is T6, HCK (Homo sapiens, UniProt P08631).
T6 construct: purchased Reaction Biology Corporation (contract assay)
As to the kind of experiment: Biochemical kinase assay (Reaction Biology). The conditions noted are these: 10 μM ATP.

The target of the next test is T7, DDR1 (Homo sapiens, UniProt Q08345).
T7 construct: purchased Reaction Biology Corporation
As to the kind of experiment: Biochemical kinase assay (Reaction Biology). The following applies: 10 μM ATP.

The next test deals with Ba/F3 EML4-ALK WT tumors. As to the kind of experiment: Ba/F3 EML4-ALK WT subcutaneous xenograft model. Format: in vivo, SCID/Beige mice. The following applies: 14 days.
The test system of test [2] is Ba/F3 EML4-ALK G1202R cell line. Briefly: Cell proliferation assay (CellTiter-Glo). The format is cell-based. The following applies: Mus musculus, 72 hours.
The subject of test [3] is Ba/F3 TPR-ALK wild type cell line. Briefly: Cell proliferation assay at Advanced Cellular Dynamics (CellTiter-Glo). Format: cell-based. The conditions noted are these: Mus musculus, BaF3, 48 hours.
In test [4] the test system is Ba/F3 SDC4-ROS1 G2032R cell line. As to the kind of experiment: Cell proliferation assay (CellTiter-Glo). The format is cell-based. The following applies: Mus musculus, BaF3; 72 hours.
In the next test the target is T8, TNK2 (Homo sapiens, UniProt Q07912).
T8 construct: purchased Reaction Biology Corporation (contract assay)
As to the kind of experiment: Biochemical kinase assay (Reaction Biology). The following applies: 10 μM ATP.

In general, IC50 refers to the midpoint of a concentration-inhibition curve.

SMILES strings stand for the structures.

Sequence of NPM-ALK (Q9UM73 with tags, fused parts or gaps): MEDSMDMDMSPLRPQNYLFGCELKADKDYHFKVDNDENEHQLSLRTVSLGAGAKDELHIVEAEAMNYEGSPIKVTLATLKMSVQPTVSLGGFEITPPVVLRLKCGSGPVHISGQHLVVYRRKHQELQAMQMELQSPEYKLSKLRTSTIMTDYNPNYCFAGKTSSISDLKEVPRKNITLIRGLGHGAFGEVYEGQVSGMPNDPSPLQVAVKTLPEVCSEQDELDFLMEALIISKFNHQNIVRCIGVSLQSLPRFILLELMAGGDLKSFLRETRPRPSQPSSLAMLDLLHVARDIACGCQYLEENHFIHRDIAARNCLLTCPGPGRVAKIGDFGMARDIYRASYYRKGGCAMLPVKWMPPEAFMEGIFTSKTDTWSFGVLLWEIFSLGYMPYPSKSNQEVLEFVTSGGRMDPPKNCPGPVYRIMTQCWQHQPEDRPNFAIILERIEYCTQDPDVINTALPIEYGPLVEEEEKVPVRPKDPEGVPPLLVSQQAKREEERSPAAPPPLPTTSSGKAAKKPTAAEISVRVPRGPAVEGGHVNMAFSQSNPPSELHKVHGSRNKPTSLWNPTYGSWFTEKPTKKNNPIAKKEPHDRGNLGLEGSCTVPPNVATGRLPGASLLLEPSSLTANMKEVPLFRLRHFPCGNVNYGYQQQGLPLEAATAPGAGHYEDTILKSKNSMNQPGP
T5 sequence (P09769 whole entry): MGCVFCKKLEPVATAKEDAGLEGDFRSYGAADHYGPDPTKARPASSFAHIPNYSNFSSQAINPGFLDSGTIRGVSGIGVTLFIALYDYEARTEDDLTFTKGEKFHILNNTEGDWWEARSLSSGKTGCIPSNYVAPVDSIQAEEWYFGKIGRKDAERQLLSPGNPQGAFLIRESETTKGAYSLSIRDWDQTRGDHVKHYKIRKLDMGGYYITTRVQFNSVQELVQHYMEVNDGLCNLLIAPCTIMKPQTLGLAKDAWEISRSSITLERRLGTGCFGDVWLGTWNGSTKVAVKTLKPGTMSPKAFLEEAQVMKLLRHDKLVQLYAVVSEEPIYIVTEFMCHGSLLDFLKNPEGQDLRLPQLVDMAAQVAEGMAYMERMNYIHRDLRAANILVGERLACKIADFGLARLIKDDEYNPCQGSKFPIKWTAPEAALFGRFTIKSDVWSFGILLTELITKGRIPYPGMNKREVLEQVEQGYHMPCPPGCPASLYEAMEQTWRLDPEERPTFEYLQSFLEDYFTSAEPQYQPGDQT
T8 sequence (Q07912 whole entry): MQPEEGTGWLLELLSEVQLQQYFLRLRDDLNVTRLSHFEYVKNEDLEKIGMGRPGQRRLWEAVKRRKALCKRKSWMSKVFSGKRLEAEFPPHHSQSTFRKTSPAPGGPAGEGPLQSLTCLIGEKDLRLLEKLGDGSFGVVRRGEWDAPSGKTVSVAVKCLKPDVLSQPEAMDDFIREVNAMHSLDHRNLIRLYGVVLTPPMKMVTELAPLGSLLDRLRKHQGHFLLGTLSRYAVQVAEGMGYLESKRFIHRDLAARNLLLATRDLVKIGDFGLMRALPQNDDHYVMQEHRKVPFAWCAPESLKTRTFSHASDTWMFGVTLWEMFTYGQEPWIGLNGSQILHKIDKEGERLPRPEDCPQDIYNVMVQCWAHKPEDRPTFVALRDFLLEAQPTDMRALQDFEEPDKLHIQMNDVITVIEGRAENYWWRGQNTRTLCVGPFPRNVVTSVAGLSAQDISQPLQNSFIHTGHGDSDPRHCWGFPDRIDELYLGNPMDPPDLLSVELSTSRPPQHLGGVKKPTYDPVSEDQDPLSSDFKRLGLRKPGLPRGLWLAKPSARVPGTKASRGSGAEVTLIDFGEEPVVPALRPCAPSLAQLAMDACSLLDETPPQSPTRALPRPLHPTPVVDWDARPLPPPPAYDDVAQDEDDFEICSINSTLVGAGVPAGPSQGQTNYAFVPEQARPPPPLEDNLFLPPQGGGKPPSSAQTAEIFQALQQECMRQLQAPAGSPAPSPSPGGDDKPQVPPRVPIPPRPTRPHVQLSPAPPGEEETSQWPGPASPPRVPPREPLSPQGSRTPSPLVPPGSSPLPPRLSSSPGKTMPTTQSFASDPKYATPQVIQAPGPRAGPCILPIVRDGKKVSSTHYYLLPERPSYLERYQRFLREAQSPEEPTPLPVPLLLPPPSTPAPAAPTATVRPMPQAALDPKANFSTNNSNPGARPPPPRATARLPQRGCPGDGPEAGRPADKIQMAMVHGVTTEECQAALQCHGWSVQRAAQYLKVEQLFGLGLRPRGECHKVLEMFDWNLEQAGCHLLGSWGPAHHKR
T4 sequence (Q06187 whole entry): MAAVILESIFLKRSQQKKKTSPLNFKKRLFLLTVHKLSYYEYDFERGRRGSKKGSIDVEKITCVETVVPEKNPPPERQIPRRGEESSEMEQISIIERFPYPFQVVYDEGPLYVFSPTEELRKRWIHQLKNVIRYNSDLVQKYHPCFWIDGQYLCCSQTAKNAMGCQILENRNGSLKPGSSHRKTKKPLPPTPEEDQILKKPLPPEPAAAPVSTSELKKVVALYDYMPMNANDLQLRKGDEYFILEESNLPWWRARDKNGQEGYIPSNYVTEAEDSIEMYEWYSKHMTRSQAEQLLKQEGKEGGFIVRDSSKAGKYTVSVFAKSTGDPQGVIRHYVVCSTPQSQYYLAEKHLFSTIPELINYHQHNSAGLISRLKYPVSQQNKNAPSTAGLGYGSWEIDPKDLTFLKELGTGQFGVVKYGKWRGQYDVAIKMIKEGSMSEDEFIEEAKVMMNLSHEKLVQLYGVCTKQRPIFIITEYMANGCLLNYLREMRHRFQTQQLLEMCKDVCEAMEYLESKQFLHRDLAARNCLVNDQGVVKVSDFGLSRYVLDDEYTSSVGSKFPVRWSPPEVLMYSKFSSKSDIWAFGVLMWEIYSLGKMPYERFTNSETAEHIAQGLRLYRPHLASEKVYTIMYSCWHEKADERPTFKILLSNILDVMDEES
T2 sequence (P29376 17-864): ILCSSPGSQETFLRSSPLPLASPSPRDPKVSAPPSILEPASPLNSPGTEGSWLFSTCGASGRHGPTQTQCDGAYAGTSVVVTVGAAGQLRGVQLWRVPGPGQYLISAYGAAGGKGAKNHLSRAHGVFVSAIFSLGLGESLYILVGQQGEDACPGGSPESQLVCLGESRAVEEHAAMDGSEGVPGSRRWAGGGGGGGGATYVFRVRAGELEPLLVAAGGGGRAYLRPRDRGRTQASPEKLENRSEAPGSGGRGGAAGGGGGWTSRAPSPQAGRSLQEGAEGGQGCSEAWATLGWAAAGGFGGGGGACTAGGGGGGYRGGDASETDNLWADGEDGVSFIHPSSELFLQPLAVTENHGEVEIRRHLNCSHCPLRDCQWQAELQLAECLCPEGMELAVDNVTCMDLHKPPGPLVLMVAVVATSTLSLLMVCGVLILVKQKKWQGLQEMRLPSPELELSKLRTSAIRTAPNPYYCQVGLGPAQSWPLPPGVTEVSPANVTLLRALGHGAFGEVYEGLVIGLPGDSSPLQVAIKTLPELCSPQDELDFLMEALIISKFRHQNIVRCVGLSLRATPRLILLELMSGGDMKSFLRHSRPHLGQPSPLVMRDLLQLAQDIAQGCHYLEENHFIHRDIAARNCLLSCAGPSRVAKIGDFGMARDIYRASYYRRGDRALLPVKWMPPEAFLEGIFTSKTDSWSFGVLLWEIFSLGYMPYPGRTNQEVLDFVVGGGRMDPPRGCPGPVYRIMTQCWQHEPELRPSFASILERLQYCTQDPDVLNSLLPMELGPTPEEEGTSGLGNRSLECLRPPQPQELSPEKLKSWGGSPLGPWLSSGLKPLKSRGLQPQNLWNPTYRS
T3 sequence (Q14289 whole entry): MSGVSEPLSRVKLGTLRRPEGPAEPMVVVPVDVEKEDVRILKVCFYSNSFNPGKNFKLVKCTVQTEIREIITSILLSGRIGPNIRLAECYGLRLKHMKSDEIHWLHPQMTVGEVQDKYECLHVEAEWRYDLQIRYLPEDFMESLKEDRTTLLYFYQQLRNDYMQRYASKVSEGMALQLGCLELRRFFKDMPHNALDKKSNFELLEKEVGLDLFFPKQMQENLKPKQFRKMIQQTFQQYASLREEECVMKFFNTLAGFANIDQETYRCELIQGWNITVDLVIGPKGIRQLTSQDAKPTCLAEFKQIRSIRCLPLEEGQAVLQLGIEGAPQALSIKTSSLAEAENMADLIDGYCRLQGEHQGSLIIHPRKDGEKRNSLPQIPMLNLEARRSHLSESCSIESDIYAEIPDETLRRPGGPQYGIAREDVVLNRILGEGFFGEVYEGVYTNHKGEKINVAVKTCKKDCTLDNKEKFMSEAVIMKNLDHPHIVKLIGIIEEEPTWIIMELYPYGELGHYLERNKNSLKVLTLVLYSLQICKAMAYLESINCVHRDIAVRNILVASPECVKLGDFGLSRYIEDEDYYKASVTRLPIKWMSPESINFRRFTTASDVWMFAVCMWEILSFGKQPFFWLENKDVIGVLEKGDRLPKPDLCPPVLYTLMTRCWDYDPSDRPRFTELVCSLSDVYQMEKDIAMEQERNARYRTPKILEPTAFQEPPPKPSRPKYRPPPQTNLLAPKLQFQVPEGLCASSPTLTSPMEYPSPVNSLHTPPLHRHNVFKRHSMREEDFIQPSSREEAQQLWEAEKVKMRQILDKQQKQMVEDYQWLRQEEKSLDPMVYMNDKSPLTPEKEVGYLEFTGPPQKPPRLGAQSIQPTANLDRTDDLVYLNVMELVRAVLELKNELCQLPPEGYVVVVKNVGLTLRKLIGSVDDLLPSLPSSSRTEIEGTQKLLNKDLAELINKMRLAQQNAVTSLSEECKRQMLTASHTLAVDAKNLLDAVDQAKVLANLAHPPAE
Procedure for BTK: (§2) Specific kinase/substrate pairs along with required cofactors were prepared in reaction buffer; 20 mM Hepes pH 7.5, 10 mM MgCl2, 1 mM EGTA, 0.02% Brij35, 0.02 mg/ml BSA, 0.1 mM Na3VO4, 2 mM DTT, 1% DMSO (for specific details of individual kinase reaction components see Supplementary Table 2). Compounds were delivered into the reaction, followed ˜20 minutes later by addition of a mixture of ATP (Sigma, St. Louis Mo.) and ^33P ATP (Perkin Elmer, Waltham Mass.) to a final concentration of 10 μM. Reactions were carried out at room temperature for 120 min, followed by spotting of the reactions onto P81 ion exchange filter paper (Whatman Inc., Piscataway, N.J.). […] IC50 values and curve fits were obtained using Prism (GraphPad Software).
Procedure for DDR1: as §2
Procedure for FGR: as §2
Procedure for HCK: as §2
Procedure for JAK1: as §2
Procedure for LTK: as §2
Procedure for PYK2: as §2
Procedure for TNK2: as §2

Consider `C[C@H]1CNC(=O)c2cnn3ccc(nc23)N[C@H](C)c2cc(F)ccc2O1` [Compound 1, (7S,13R)-11-fluoro-7,13-dimethyl-6,7,13,14-tetrahydro-1,15-ethenopyrazolo[4,3-f][1,4,8,10]benzoxatriazacyclotridecin-4(5H)-one], for which the IC50 in the test on Ba/F3 + IL3 parental is 1240 nM; in the test with AKT, roughly 0.3 nM; in the test with ERK, roughly 0.3 nM; on JAK1, 19 nM; at LTK, 21.8 nM; in test [1], 17.8 nM. Also, the IC50 at PYK2 came out at 39.9 nM; on BTK, 23.7 nM; against FGR, 3.05 nM; at HCK it was 16.4 nM; on DDR1, 5.7 nM; in test [2] it was 20.5 nM. The values for the IC50 (in test [3]; in test [4]; against TNK2) were 12 nM, 5 nM and 24.1 nM, respectively. Also, the “ALK phosphorylation, % of the control level” value at NPM-ALK (15 mg/kg BID 7 days, 3 hours post oral administration) is reported as less than 10%; at NPM-ALK (15 mg/kg BID 7 days, 12 hours post dosing), “about 21%”; at NPM-ALK (50 mg/kg BID 7 days, 3 hours post oral administration), less than 5%; at NPM-ALK (50 mg/kg BID 7 days, 12 hours post dosing) it was “about 10%”. Further, the “Tumor growth inhibition (TGI)” value in the test on Ba/F3 EML4-ALK WT tumors (15 mg/kg/BID orally) turned out to be 74%. In addition, the “mice exhibiting tumor regression” value in the test on Ba/F3 EML4-ALK WT tumors (75 mg/kg BID orally) was 6 of 8. Besides, the “tumor regression (REG)” value in the test on Ba/F3 EML4-ALK WT tumors (75 mg/kg BID orally) was found to be 54%.
